System: MCF7
Experiment: In vitro cytotoxicity against MCF-7 human mammary carcinoma cells
Assay type: functional, cell-based

Structure (SMILES)	IC50 [µM]
Nc1ccc(-c2nc3ccccc3s2)cc1	< 0.001
Nc1ccc(-c2nc3ccc(O)cc3s2)cc1	21.6
CC(=O)Nc1ccc(-c2nc3cc(O)ccc3s2)cc1Cl	31

Reference: ChEMBL document CHEMBL1132434, “Antitumor benzothiazoles. 8. Synthesis, metabolic formation, and biological properties of the C- and N-oxidation products of antitumor 2-(4-aminophenyl)benzothiazoles” (J Med Chem, 1999)
